Source: ChEMBL document CHEMBL1150095, “Antitumor activity and stereochemistry of acetylenic alcohols from the sponge Cribrochalina vasculum” (1995)

Key:
Format in all cases: functional
MDA-MB-435 = test: Antitumor activity against human MDA-MB-435 cells
UACC-257 = test: Antitumor activity against human UACC257 cells
PC-3 = test: Antitumor activity against human PC3 cells
A549 = test: Antitumor activity against human A549 cells
OVCAR-5 = test: Antitumor activity against human OVCAR5 cells
CAKI-1 = test: Antitumor activity against human Caki1 cells
UO-31 = test: Antitumor activity against human UO31 cells
MCF7 = test: Antitumor activity against human MCF7 cells
NCI-H522 = test: Antitumor activity against human NCI-H522 cells
SF-268 = test: Antitumor activity against human SF268 cells
HL-60(TB) = test: Antitumor activity against human HL-60(TB) cells
HCT-15 = test: Antitumor activity against human HCT15 cells
SW-620 = test: Antitumor activity against human SW620 cells
OVCAR-4 = test: Antitumor activity against human OVCAR4 cells
MDA-MB-231 = test: Antitumor activity against human MDA-MB-231 cells
OVCAR-3 = test: Antitumor activity against human OVCAR-3 cells
MOLT-4 = test: Antitumor activity against human MOLT4 cells
NCI-H226 = test: Antitumor activity against human NCI-H226 cells
NCI-H460 = test: Antitumor activity against human NCI-H460 cells
[1] = Antitumor activity against human […] cells
NCI-H322M = test: Antitumor activity against human NCI-H322M cells
SK-MEL-2 = test: Antitumor activity against human SK-MEL-2 cells
SR = test: Antitumor activity against human SR cells
[2] = Antitumor activity against human MCF7/ADR cells; conditions: NCI/ADR-RES
SK-MEL-5 = test: Antitumor activity against human SK-MEL-5 cells
SNB-75 = test: Antitumor activity against human SNB75 cells
SK-MEL-28 = test: Antitumor activity against human SK-MEL-28 cells
TK-10 = test: Antitumor activity against human TK10 cells
786-0 = test: Antitumor activity against human 786-0 cells
SNB-19 = test: Antitumor activity against human SNB19 cells
[3] = read-out: pLC50 (the source's name) (converted)

C#C[C@@H](O)/C=C/CCCCCCCCC/C=C\CCCCCC gave a GI50 (MDA-MB-435) of 26.9 nM, a CC50 (MDA-MB-435; [3]) of 126 nM and a TGI (MDA-MB-435; read-out: pTGI (converted)) of 57.5 nM. It also gave a GI50 (UACC-257) of 32.4 nM, a CC50 (UACC-257; [3]) of 126 nM and a TGI (UACC-257; read-out: pTGI (converted)) of 64.6 nM. It also gave a GI50 (PC-3) of 39.8 nM, a CC50 (PC-3; [3]) of 138 nM and a TGI (PC-3; read-out: pTGI (converted)) of 74.1 nM. For the same molecule, the GI50 (A549) was 45.7 nM, the CC50 (A549; [3]) was 148 nM and the TGI (A549; read-out: pTGI (converted)) was 83.2 nM. The GI50 (OVCAR-5) was 46.8 nM, the CC50 (OVCAR-5; [3]) was 145 nM and the TGI (OVCAR-5; read-out: pTGI (converted)) was 81.3 nM. It also gave a GI50 (CAKI-1) of 52.5 nM, a CC50 (CAKI-1; [3]) of 162 nM and a TGI (CAKI-1; read-out: pTGI (converted)) of 91.2 nM. The GI50 (UO-31) was 52.5 nM, the CC50 (UO-31; [3]) was 151 nM and the TGI (UO-31; read-out: pTGI (converted)) was 89.1 nM. The GI50 (MCF7) was 13.8 nM, the CC50 (MCF7; [3]) was 123 nM and the TGI (MCF7; read-out: pTGI (converted)) was 47.9 nM. For the same molecule, the GI50 (NCI-H522) was 0.115 nM, the LC50 (NCI-H522) was 1.18 nM and the TGI (NCI-H522; read-out: pTGI (converted)) was 0.436 nM. It also gave a GI50 (SF-268) of 38.9 nM, a CC50 (SF-268; [3]) of 138 nM and a TGI (SF-268; read-out: pTGI (converted)) of 74.1 nM. For the same molecule, the GI50 (HL-60(TB)) was 10.2 nM, the CC50 (HL-60(TB); [3]) was 129 nM and the TGI (HL-60(TB); read-out: pTGI (converted)) was 36.3 nM. For the same molecule, the GI50 (HCT-15) was 36.3 nM, the CC50 (HCT-15; [3]) was 132 nM and the TGI (HCT-15; read-out: pTGI (converted)) was 69.2 nM. The GI50 (SW-620) was 9.33 nM, the CC50 (SW-620; [3]) was 112 nM and the TGI (SW-620; read-out: pTGI (converted)) was 42.7 nM. It also gave a GI50 (OVCAR-4) of 18.6 nM, a CC50 (OVCAR-4; [3]) of 112 nM and a TGI (OVCAR-4; read-out: pTGI (converted)) of 51.3 nM. It also gave a GI50 (MDA-MB-231) of 47.9 nM, a CC50 (MDA-MB-231; [3]) of 145 nM and a TGI (MDA-MB-231; read-out: pTGI (converted)) of 83.2 nM. It also gave a GI50 (OVCAR-3) of 49 nM, a CC50 (OVCAR-3; [3]) of 145 nM and a TGI (OVCAR-3; read-out: pTGI (converted)) of 85.1 nM. The GI50 (MOLT-4) was 6.46 nM, the CC50 (MOLT-4; [3]) was 126 nM and the TGI (MOLT-4; read-out: pTGI (converted)) was 26.9 nM. For the same molecule, the GI50 (NCI-H226) was 30.2 nM, the CC50 (NCI-H226; [3]) was 129 nM and the TGI (NCI-H226; read-out: pTGI (converted)) was 61.7 nM. For the same molecule, the GI50 (NCI-H460) was 42.7 nM, the CC50 (NCI-H460; [3]) was 151 nM and the TGI (NCI-H460; read-out: pTGI (converted)) was 79.4 nM. For the same molecule, the GI50 [1] was 6.76 nM, the CC50 [1, 3] was 129 nM and the TGI ([1]; read-out: pTGI (converted)) was 18.6 nM. For the same molecule, the GI50 (NCI-H322M) was 53.7 nM, the CC50 (NCI-H322M; [3]) was 151 nM and the TGI (NCI-H322M; read-out: pTGI (converted)) was 91.2 nM. It also gave a GI50 (SK-MEL-2) of 8.13 nM, a CC50 (SK-MEL-2; [3]) of 83.2 nM and a TGI (SK-MEL-2; read-out: pTGI (converted)) of 23.4 nM. It also gave a GI50 (SR) of 15.5 nM, a CC50 (SR; [3]) of 174 nM and a TGI (SR; read-out: pTGI (converted)) of 55 nM. The GI50 [2] was 38 nM, the CC50 [2, 3] was 138 nM and the TGI ([2]; read-out: pTGI (converted)) was 72.4 nM. It also gave a GI50 (SK-MEL-5) of 32.4 nM, a CC50 (SK-MEL-5; [3]) of 129 nM and a TGI (SK-MEL-5; read-out: pTGI (converted)) of 64.6 nM. For the same molecule, the GI50 (SNB-75) was 12.3 nM, the CC50 (SNB-75; [3]) was 107 nM and the TGI (SNB-75; read-out: pTGI (converted)) was 43.6 nM. The GI50 (SK-MEL-28) was 41.7 nM, the CC50 (SK-MEL-28; [3]) was 138 nM and the TGI (SK-MEL-28; read-out: pTGI (converted)) was 75.9 nM. The GI50 (TK-10) was 60.3 nM, the CC50 (TK-10; [3]) was 155 nM and the TGI (TK-10; read-out: pTGI (converted)) was 97.7 nM. For the same molecule, the GI50 (786-0) was 42.7 nM, the CC50 (786-0; [3]) was 138 nM and the TGI (786-0; read-out: pTGI (converted)) was 77.6 nM. For the same molecule, the GI50 (SNB-19) was 52.5 nM.
